Assay results reported in US20260206828A1, “CONSTITUENT MEMBER PERFUMED BY FLAVOR RAW MATERIAL AND SMOKING ARTICLE” (Japan Tobacco Inc., priority 2022, published 2026).

Legend:
[1] = Storage resistance by GC/MS: residual rate in tobacco filler in an open system; assay type: physicochemical; settings: 5,000 ppm in tobacco filler, open system on a tray, 5 days in an incubator, internal standard quinoline
Protocol: Solutions were prepared by dissolving menthol and other cooling agents (the abovementioned COOLACT® 370 and Symcool® WS-23) respectively through addition of ethanol thereto. Each solution thus obtained was added to the tobacco filler portion of a combustion smoking article, using a microsyringe (MS-50, Ito Microsyringe, manufactured by Ito Seisakusho), such that that the content of menthol or other cooling sensation agent was 5,000 ppm relative to the weight of the tobacco, and the samples immediately after addition were considered to be “pre-storage cigarette samples.” Each solution thus obtained was also added to the tobacco filler portion of a heat-not-burn smoking article (a tobacco stick comprising a tobacco filler portion and a filter portion), using the abovementioned microsyringe, such that that the menthol or other cooling sensation agent content was 5,000 ppm relative to the weight of the tobacco therein, and the samples immediately after addition were considered to be “pre-storage tobacco stick samples.” The cigarettes and tobacco sticks injected with menthol or other cooling sensation agent were then placed on a tray (DT-1 disposable tray, manufactured by As One), stored for 5 days in an incubator (SCI-13 compact incubator, manufactured by Shibata), and were respectively considered to be “post-storage cigarette samples” and “post-storage tobacco stick samples.”
In addition, 1.0 g of quinoline was precisely weighed out as an internal standard, and diluted to 1 L with methanol to serve as an extraction solvent.
The pre-storage cigarette samples, pre-storage tobacco stick samples, post-storage cigarette samples, and post-storage tobacco stick samples obtained as described above then underwent the following treatment. • The tobacco filler portion was removed from each sample and placed in a screw tube, and 10 mL of the extraction solvent, prepared as described above, was added. The screw tubes were then shaken at 200 rpm for 20 minutes, and, after having been left to stand overnight, shaken again at 200 rpm for 20 minutes to obtain tobacco filler portion extract samples. The extract samples obtained from the pre-storage cigarette samples, pre-storage tobacco stick samples, post-storage cigarette samples, and post-storage tobacco stick samples were respectively considered to be “pre-storage cigarette extract samples,” “pre-storage tobacco stick extract samples,” “post-storage cigarette extract samples,” and “post-storage tobacco stick extract samples.”
The extract samples thus obtained were each collected using a syringe (25 mL, SS-02SZ, manufactured by Terumo Corporation) and filtered through a filter (0.45 μm, Prem Syringe Filter, RC, manufactured by Agilent Technologies), and the liquids obtained after filtration were respectively considered to be extract samples for pre-storage cigarette analysis, extract samples for pre-storage tobacco stick analysis, extract samples for post-storage cigarette analysis, and extract samples for post-storage tobacco stick analysis.
The target ions and qualifier ions shown below were selected for the respective cooling sensation agents. A target ion and qualifier ion were also selected for quinoline, used as the internal standard. • Menthol (target ion: m/z=95.1, qualifier ion: m/z=71.0, 81.1) • […] (target ion: m/z=114.0, qualifier ion: m/z=57.0, 102.0) • COOLACT® 370 (target ion: m/z=211.2, qualifier ion: m/z=97.0, 168.1) • Quinoline (target ion: m/z=129.1, qualifier ion: m/z=76.0, 102.0)
• Column: HP-5 MS (manufactured by Agilent Technologies), inner diameter 0.25 mm×length 30 m, film thickness 0.25 μm • Injection volume: 1 μL • Injection mode: Split (10:1) • Injection port temperature: 270° C. • Septum purge flow rate: 5 mL/minute • Carrier gas: Helium (He) • Column flow rate: 1 ml/minute (constant flow mode) • Oven: 40° C. (for 3 minutes) to 280° C. (for 10 minutes) at 10° C./minute […]

[2] = Preliminary study of cooling sensation intensity; assay type: in vivo; settings: similar contents
Text: Whereas the content of the methyl menthol derivative or cooling agent other than a methyl menthol derivative as a cooling ingredient was 2000 ppm in the abovementioned Examples 1-3 and in Comparative Examples 2 and 4, the content of the cooling ingredient menthol in the abovementioned Comparative Examples 1 and 3 was set to 5,000 ppm, thus adjusting the cooling sensation intensity as much as possible to facilitate comparison, in order to assess cooling sensation intensity in the present sensory evaluation.

[3] = Retention index (RI) measurement by GC/MS; assay type: physicochemical; settings: HP-5 MS column (95% dimethylpolysiloxane/5% phenyl-methylpolysiloxane), 1000 ppm in ethanol, n-alkane mixture C6-C35, linear method
Protocol: Menthol (L-Menthol, manufactured by Takasago International Corporation) and cooling sensation agents (the abovementioned COOLACT® 370, COOLACT® 5, COOLACT® 10, COOLACT® 20, Symcool® WS-5, and Symcool® WS-23) were respectively diluted by adding ethanol to obtain diluted solutions of menthol and each cooling sensation agent diluted to 1000 ppm in ethanol.
Gas chromatography with a mass spectrometer (GC/MS) was then performed on the abovementioned diluted solutions thus obtained.
• Apparatus: 7890B/5977B GC/MSD, manufactured by Agilent Technologies GC conditions • Column: HP-5 MS (manufactured by Agilent Technologies) • Inner diameter 0.25 mm×length 30 m, film thickness 0.25 μm • Injection volume: 1 μL • Injection mode: Split (10:1) • Injection port temperature: 270° C. • Septum purge flow: 5 ml/minute • Carrier gas: Helium (He) • Column flow rate: 1 mL/minute (constant flow mode) • Oven temperature: From 40° C. (3 minutes) to 280° C. (20 minutes) at a rate of 4° C./minute • Transfer line temperature: 280° C. MS conditions • Solvent wait time: 4 minutes • Ionization method: Electron impact ionization (EI), 70 eV • Ion source temperature: 230° C. • Quadrupole temperature: 150° C. • Measurement mode: Scan • MS scan range: m/z 26-450 • Threshold: 50 • Sampling rate: 2
The chromatogram retention index (RI) obtained by the abovementioned GC/MS analysis was calculated by the following method.
The RI of menthol or respective cooling agent was calculated by a linear method on the basis of an n-alkane mixture ranging from n-hexane (C6, RI: 600) to n-pentatriacontane (C35, RI: 3500) Note that the n-alkane mixture used in calculating the RI is not limited thereto.

[4] = Storage resistance by GC/MS: migration from tobacco filler to filter in a closed system; assay type: physicochemical; settings: tobacco sticks, 2,500, 5,000 and 10,000 ppm
Protocol: A solution was prepared by dissolving a methyl menthol derivative (the abovementioned COOLACT® 370) through addition of methanol thereto. The solution thus obtained was added using the microsyringe described above to the tobacco filler of portion of an unheated smoking article (a tobacco stick comprising a tobacco filler portion and a filter portion), using the abovementioned microsyringe, such that the methyl menthol derivative content was 2,500 ppm, 5,000 ppm, or 10,000 ppm relative to the weight of tobacco therein, and the samples immediately after addition were considered to be “pre-storage tobacco stick samples.” Each tobacco stick injected with the methyl menthol derivative was placed in a Lami-Zip bag (AL-5, manufactured by Seisannipponsha), and left in an incubator (an SCI-13 compact incubator, manufactured by Shibata) for 5 days to provide a “post-storage tobacco stick sample.”
The pre-storage and post-storage tobacco stick samples obtained in the abovementioned manner underwent the following processing. • The tobacco filler portion and filter portion were removed from each sample and placed in a separate screw tube, and 10 mL of methanol were added. […]

[5] = cigarettes (combustion smoking articles)
[6] = tobacco sticks (heat-not-burn smoking articles)

SMILES | Residual rate [1, 5] | Residual rate [1, 6] | Cooling sensation intensity compared with methyl menthol derivatives and other cooling agents [2] | Retention index (RI) [3] | Migration from tobacco filler portion to filter portion, post-storage ([4]; closed system (Lami-Zip bag), 5 days in an incubator, FIGS. 10-12) | Migration from tobacco filler portion to filter portion, pre-storage ([4]; immediately after addition, GC/MS total ion chromatograms, FIGS. 7-9)
CC1CCC(C(C)C)C(O)C1 (stereo not shown) [Menthol] | 15.9% | 10.4% | weaker cooling sensation intensity | 1173 |  | 
CNC(=O)C(C)(C(C)C)C(C)C [Symcool® WS-23, 2-isopropyl-N,2,3-trimethylbutyramide] | 33.5% | 50.2% |  | 1287 |  | 
CC1CCC(C(C)C)C(OCC(O)CO)C1 [COOLACT® 10, 3-L-menthoxypropane-1,2-diol] |  |  |  | 1674 |  | 
CC(O)CC(=O)O[C@@H]1C[C@H](C)CC[C@H]1C(C)C (stereo partly drawn) [COOLACT® 20, L-menthyl-3-hydroxybutyrate] |  |  |  | 1611 |  | 
CC(C)[C@@H]1CC[C@@H](C)C[C@H]1OCCO [COOLACT® 5, 2-L-menthoxyethanol] |  |  |  | 1414 |  | 
CC(C)C1CCC(C)(C)CC1C(=O)NCC(O)c1ccccc1 (stereo not shown) [COOLACT® 370, N-(2-hydroxy-2-phenylethyl)-2-isopropyl-5,5-dimethylcyclohexane-1-carboxamide] | 98.5% | 100% |  | 2477 | had not migrated from the tobacco filler portion to the filter portion | did not migrate from the tobacco filler portion to the filter portion
CCOC(=O)CNC(=O)C1CC(C)CCC1C(C)C (stereo not shown) [Symcool® WS-5, ethyl-2-(p-menthane-3-carboxamido)acetate] |  |  |  | 1942 |  | 
